Series [1] addresses T1, synAAAD (synthetic gene based on pkAAAD protein sequence) (Sus scrofa, UniProt P80041).
T1 construct: made in house; host or cells: E. coli (pET-15 vector)
T1 sequence (P80041 1-486): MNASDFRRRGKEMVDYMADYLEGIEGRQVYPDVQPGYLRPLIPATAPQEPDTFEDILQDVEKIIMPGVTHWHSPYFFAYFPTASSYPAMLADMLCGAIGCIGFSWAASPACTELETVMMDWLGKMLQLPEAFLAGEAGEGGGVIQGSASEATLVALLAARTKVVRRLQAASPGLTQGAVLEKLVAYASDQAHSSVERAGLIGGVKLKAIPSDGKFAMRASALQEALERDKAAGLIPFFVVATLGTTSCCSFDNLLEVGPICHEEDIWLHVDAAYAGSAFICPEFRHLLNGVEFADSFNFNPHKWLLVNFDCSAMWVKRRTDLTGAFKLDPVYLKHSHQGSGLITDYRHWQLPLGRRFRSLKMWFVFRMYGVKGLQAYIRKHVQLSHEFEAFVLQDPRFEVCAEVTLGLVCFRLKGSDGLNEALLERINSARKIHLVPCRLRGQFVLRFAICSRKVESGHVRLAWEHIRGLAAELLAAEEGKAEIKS
Description: Substrate screen for tryptophan decarboxylation, SynAAAD. Format: biochemical. The arrangement: key: +: a clear ninhydrin-positive spot at the Rf of standard tryptophan derivatives after 16-65 h; (+): a weak spot in the product region; −: no product observed; NR: experiment not run. The conditions noted are these: tryptophan derivative, PLP, pH 7.5, 37° C. As to the method: A mixture containing 1 μmole of the tryptophan derivative, 0.05 μmole of PLP and 50 μmol of L-serine in 40 mM pH 7.5 KPi buffer was warmed to 37° C., then enzyme solution was added to give a final volume of 1 mL. Aliquots (100 HL) were quenched at intervals and were evaporated in a Savant Speed-vac as in Example 6. For TLC analysis, CH2Cl2/EtOH/H2O/HOAc 49:49:1:1 was used as the solvent. The plates were visualized with short-wave UV light and ninhydrin as in Example 6.
HPLC techniques were used to monitor the decarboxylation of substituted tryptophans. Mass spectral analysis of the collected HPLC peaks was used to confirm the identity of several tryptamine derivatives, as shown in Table 5.

The target of series [2] is T2, pig kidney aromatic amino acid decarboxylase (pkAAAD) (Sus scrofa, UniProt P80041).
T2 construct: Frozen tissue was partially thawed in lysis buffer, then it was extracted and partially purified; from tissue; host or cells: pig kidney
T2 sequence (P80041 1-486): T1 sequence (P80041 1-486)
Description: Substrate screen for tryptophan decarboxylation, pkAAAD. The conditions noted are these: tryptophan derivative, PLP, pH 7.5, 37° C. Further details: key: +: a clear ninhydrin-positive spot at the Rf of standard tryptophan derivatives after 16-65 h; (+): a weak spot in the product region; −: no product observed; NR: experiment not run. Format: biochemical.

A further series has as its target T3, tryptophanase (TnA) (Escherichia coli, UniProt P0A853).
T3 construct: made in house; host or cells: E. coli LMG194 (pBAD) or BL-21 (pET)
It is filed as biochemical, E. coli. Further details: key: +: a clear ninhydrin-positive spot at the Rf of standard tryptophan derivatives after 16-65 h; (+): a weak spot in the product region; −: no product observed; NR: experiment not run. Particulars: indole derivative + L-serine + PLP, 37° C., 16-65 h, ninhydrin. As to the method:
(§1) A mixture containing 2 μmole of the indole derivative, 0.05 μmole of PLP and 50 μmol of L-serine in 40 mM KPi buffer in 8% v/v ethanol water, pH 7.5, was warmed to 37° C., then enzyme solution was added to give a final volume of 1 mL. Aliquots (100 μL) were quenched at intervals of 2, 6, and 24 hours or more in microcentrifuge capsules containing 25 μL of 6 M HCl. The quenched samples were evaporated in a Savant Speed-vac. The residues were resuspended in methanol/water (1:1, 50 μL) and analyzed by TLC on Silica gel GF254 plates alongside tryptophan and tryptamine standards, eluting with CH2Cl2/EtOH/H2O/HOAc 77:20:2:1. Products were visualized first by using short-wave UV light, then with ninhydrin spray reagent (1/1/98 w/v/v ninhydrin/HOAc/EtOH) followed by heating.
(§2) Substituted indoles were incubated with L-serine, PLP and enzyme (TrpBA or TnA) prior to TLC analysis as generally described in Example 6. Serine, which can be used instead of pyruvate and ammonia for tryptophan synthesis with TnA, was employed as the 3-carbon acid because pyruvate tended to obscure the tryptophan product spots when plates were visualized with ninhydrin. TnA-catalyzed formation of tryptophan was also faster when serine was the 3-carbon donor. Reaction rates for several substrates were also estimated by HPLC.
(§3) In Table 4, “+” indicates a clear ninhydrin-positive spot at the Rf of standard tryptophan derivatives after 16-65 h; “(+)” indicates a weak spot in the product region; “−” means no product observed, “NR” means experiment not run. ESMS=electrospray mass spectrometry. Unless otherwise indicated, the mass value given represents the singly-protonated molecular ion (M+1).

Series [3] has as its target T4, E. coli DH5α tryptophan synthase (TrpBA) (Escherichia coli, UniProt P0A879).
T4 construct: made in house; host or cells: E. coli LMG194 (pBAD) or BL-21 (pET)
Format: biochemical. Further details: key: +: a clear ninhydrin-positive spot at the Rf of standard tryptophan derivatives after 16-65 h; (+): a weak spot in the product region; −: no product observed; NR: experiment not run. The conditions noted are these: indole derivative + L-serine + PLP, 37° C., 16-65 h, ninhydrin. As to the method:
as §1, §2, §3

A short description of series [4]: Decarboxylase activity of the enzyme preparations (Ehrlich's reagent). Format: biochemical. As to the method:
Tryptophan synthase activity was assayed by monitoring the increase in absorbance at 290 nm of a mixture containing serine, indole and PLP (Higgins, W., et al., Biochemistry, 1979, 18, 4827). TnA-catalyzed tryptophan synthesis was also measured by the 290 nm assay, while the tryptophan lyase reaction rate was measured by monitoring the reduction in NADH in reaction mixtures containing L-tryptophan and lactate dehydrogenase, indicating the amount of pyruvate released. Tryptophan decarboxylase was assayed colorimetrically by monitoring the sabsorbance at 580 nm produced by serotonin (AAADs) or tryptamine (TDCs) following treatment of reaction aliquots with Ehrlich's reagent (4-N,N-(dimethyl)aminobenzaldehyde in ethanolic HCl; Nakazawa, H.; Kumagi, H.; Yamada, H. Biochem Biophys. Res. Commun., 1974, 61, 75-82). Serotonin could be detected with approximately 5-fold higher sensitivity by this method as compared with tryptamine. The Ehrlich reagent assay using a microtiter plate format for simultaneous analysis of multiple enzyme samples may also be used. HPLC analysis was performed on acid-quenched reaction aliquots by using a base-deactivated C8 reversed-phase support (Shandon Hypersil BD8). HPLC analysis of acid-quenched aliquots permitted calculation of a rate ratio of 4.5 to 1 for pkAAAD-catalyzed DOPA decarboxylation relative to that of L-5-hydroxytryptophan, in good agreement with the accepted ratio of approximately 5:1. (See Sourkes, T. L. Methods Enzymol., 1987, 142, 170-178, which is incorporated herein by reference.)
A mixture (0.95 mL) containing L-5-hydroxytryptophan (2 mM), PLP (0.25 mM) and pH 7.5 KPi buffer (44 mM) was warmed to 37° C., then 50 μL of enzyme was added. Reaction aliquots were quenched in microcentrifuge capsules containing 50 μL each of 6M HCl to quench the enzyme reaction at 2, 5, and 20 min. Quenched aliquots were heated at 50° C. for 40 min with 750 μL each of Ehrlich's reagent (2:24:74 w/v/v […]: conc HCl: ethanol). Absorbance was read at 580-nm and compared with standards of serotonin (10-250 μM) or tryptamine (50 to 2000 μM).
Decarboxylase enzyme activity was determined using L-5-hydroxytryptophan as the substrate unless otherwise stated.

Setting [5] is: Table 2, L-5-hydroxytryptophan as substrate.

T3 sequence (P0A853 whole entry): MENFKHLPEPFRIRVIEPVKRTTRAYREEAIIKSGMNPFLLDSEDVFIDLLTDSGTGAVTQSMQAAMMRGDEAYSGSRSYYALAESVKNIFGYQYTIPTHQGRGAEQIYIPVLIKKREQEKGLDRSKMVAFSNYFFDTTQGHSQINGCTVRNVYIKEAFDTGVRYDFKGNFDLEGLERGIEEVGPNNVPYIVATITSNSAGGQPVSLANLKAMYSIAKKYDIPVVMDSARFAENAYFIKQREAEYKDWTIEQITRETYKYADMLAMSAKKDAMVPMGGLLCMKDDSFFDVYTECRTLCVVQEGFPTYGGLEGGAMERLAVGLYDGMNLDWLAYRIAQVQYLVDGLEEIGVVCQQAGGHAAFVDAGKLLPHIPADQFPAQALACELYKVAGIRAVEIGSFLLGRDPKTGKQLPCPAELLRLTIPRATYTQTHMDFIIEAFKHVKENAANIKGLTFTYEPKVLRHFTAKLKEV
T4 sequence (P0A879 whole entry): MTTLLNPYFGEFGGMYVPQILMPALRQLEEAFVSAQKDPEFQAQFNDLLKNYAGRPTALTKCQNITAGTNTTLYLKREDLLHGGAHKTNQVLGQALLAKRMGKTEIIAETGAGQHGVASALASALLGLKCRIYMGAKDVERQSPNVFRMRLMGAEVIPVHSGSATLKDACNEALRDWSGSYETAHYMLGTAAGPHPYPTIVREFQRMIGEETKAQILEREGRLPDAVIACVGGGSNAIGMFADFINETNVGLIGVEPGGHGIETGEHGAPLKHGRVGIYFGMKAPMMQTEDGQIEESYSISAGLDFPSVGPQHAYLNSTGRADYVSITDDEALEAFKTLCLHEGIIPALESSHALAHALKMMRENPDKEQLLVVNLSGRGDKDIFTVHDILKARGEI
T4 sequence (P0A877 whole entry, further chain): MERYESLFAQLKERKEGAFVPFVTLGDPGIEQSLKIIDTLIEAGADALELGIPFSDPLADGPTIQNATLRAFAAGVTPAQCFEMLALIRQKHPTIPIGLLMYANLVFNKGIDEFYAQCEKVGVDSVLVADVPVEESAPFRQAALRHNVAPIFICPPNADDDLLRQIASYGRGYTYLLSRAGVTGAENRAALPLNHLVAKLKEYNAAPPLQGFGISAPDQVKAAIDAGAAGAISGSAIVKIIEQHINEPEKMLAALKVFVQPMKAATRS

On to `COc1ccc2[nH]cc(CC(N)C(=O)O)c2c1` (racemic) [DL-5-methoxy-trp], for which the “SynAAAD (decarboxylation substrate screen)” value (“SynAAAD” for short) in series [1] is given as “(+)”.

Consider `NC(Cc1c[nH]c2ncccc12)C(=O)O` (racemic) [DL-7-aza-trp], for which, in series [1], the “SynAAAD” value is recorded as “−”. In addition, the “pkAAAD (decarboxylation substrate screen)” value in series [2] is “−”.

With `Cc1ccc2[nH]c(C)cc2c1` [2,5-dimethyl-], the “TnA (tryptophan product spot, TLC analysis)” value (from here on “TnA”) on tryptophanase (TnA) is recorded as “−”. The “TrpBA (tryptophan product spot, TLC analysis)” value (shortened to “TrpBA”) in series [3] is reported as “+”.

In the case of `Nc1cccc2[nH]ccc12` [4-amino-], the “TnA” value at tryptophanase (TnA) is recorded as “+”. Moreover, in series [3], the “TrpBA” value is listed as “+”.

Take `Oc1cccc2[nH]ccc12` [4-hydroxy]: the “TnA” value on tryptophanase (TnA) is reported as “+”. Besides, the “TrpBA” value in series [3] is reported as “+”.

Turning to `O=[N+]([O-])c1cccc2[nH]ccc12` [4-nitro-], on tryptophanase (TnA), the “TnA” value is recorded as “−”. In addition, the “TrpBA” value in series [3] is recorded as “−”.

Take `Nc1ccc2[nH]ccc2c1` [5-amino-]: on tryptophanase (TnA), the “TnA” value is “−”. In series [3], the “TrpBA” value is recorded as “−”.

Take `O=C(O)c1cc2cc(Br)ccc2[nH]1` [5-bromoindole-2-carboxylic acid]: the “TrpBA” value in series [3] was “−”.

For `Clc1ccc2[nH]ccc2c1` [5-chloro-], the “TnA” value on tryptophanase (TnA) is “+”. Further, the “TrpBA” value in series [3] is listed as “+”.

As for `N#Cc1ccc2[nH]ccc2c1` [5-cyano-], at tryptophanase (TnA), the “TnA” value is reported as “−”. For the same molecule, the “TrpBA” value in series [3] is “−”.

Take `Oc1ccc2[nH]ccc2c1` [5-hydroxy-]: the “TnA” value on tryptophanase (TnA) is on record as “+”. Further, in series [3], the “TrpBA” value is given as “+”.

Consider `COc1ccc2[nH]c(C)cc2c1` [5-methoxy-2-methyl-], for which the “TnA” value at tryptophanase (TnA) is “−”. Further, the “TrpBA” value in series [3] is reported as “+”.

On to `O=[N+]([O-])c1ccc2[nH]ccc2c1` [5-nitro-], for which, on tryptophanase (TnA), the “TnA” value was “−”. The “TrpBA” value in series [3] is listed as “−”.

Take `Clc1ccc2cc[nH]c2c1` [6-chloroindole]: the “TnA” value at tryptophanase (TnA) was “+”. Moreover, the “TrpBA” value in series [3] is “−”.

Turning to `Fc1ccc2cc[nH]c2c1` [6-fluoroindole], the “TnA” value at tryptophanase (TnA) is given as “(+)”. Besides, the “TrpBA” value in series [3] is recorded as “+”.

On to `COc1ccc2cc[nH]c2c1` [6-methoxyindole], for which, at tryptophanase (TnA), the “TnA” value is “(+)”. In addition, in series [3], the “TrpBA” value is on record as “+”.

In the case of `Clc1cccc2cc[nH]c12` [7-chloro], at tryptophanase (TnA), the “TnA” value is “−”. In addition, the “TrpBA” value in series [3] is reported as “+”.

For `O=C(O)c1ccc2[nH]ccc2c1` [Indole-5-carboxylic acid], the “TnA” value on tryptophanase (TnA) is given as “−”. Further, in series [3], the “TrpBA” value is recorded as “−”.

Take `N[C@@H](Cc1c[nH]c2ccc(CO)cc12)C(=O)O` [L-5-(hydroxymethyl)-trp]: in series [1], the “SynAAAD” value is “−”.

Take “indoxyl acetate [4-acetoxy-[indoxyl acetate]]”: the “TnA” value on tryptophanase (TnA) was “+”. In addition, in series [3], the “TrpBA” value is on record as “+”.

B1: synAAAD: enzyme from synthetic gene optimized for E. coli expression, based on the pkAAAD protein sequence (protein, UniProt P80041 1-486, looked up)
Aromatic-L-amino-acid …: T1 sequence (P80041 1-486)
modifications: codon-optimized synthetic gene
In series [4] (setting [5]), B1 had a Crude specific activity of 0.18 units/mg and a Purified specific activity of 0.3 Units/mg. Moreover, the Crude specific activity in series [4] (Table 3, decarboxylases) was found to be 0.18 units/mg. In series [4] (crude extracts), the “specific activity in crude extracts” value was 0.1-0.2 units/mg.

B2: pkAAAD: aromatic amino acid decarboxylase extracted from pig kidney tissue, E.C. 4.1.1.28 (protein, UniProt P80041 1-486, looked up)
Aromatic-L-amino-acid …: T1 sequence (P80041 1-486)
In series [4] (setting [5]), B2 gave a Crude specific activity of 0.05 units/mg and a Purified specific activity of 0.2 Units/mg. Further, the Crude specific activity in series [4] (Table 3, decarboxylases) is on record as 0.05 units/mg.

Source of the values: patent US20030096379A1, “Method for producing tryptamine derivatives” (priority 2001, published 2003).
